Reference: paper PMC9230201, “Sustained Consumption of a Decaffeinated Green Coffee Nutraceutical Has Limited Effects on Phenolic Metabolism and Bioavailability in Overweight/Obese Subjects” (Nutrients, 2022)
Values joined by “and” are separate entries in the source; they are usually repeats but may differ in a detail not shown here. Equal entries are not always repeated.

Columns and labels:
[1] = Fecal excretion of phenolic metabolites after intake of the GCPE nutraceutical; conditions: feces
Experimental: (§1) Participants attended the Human Nutrition Unit (HNU) at the Institute of Food Science, Technology and Nutrition (ICTAN-CSIC) on two consecutive days at the beginning of the intervention (week 0) and also on two consecutive days at the end of the study, after consuming daily two doses of the GCPE nutraceutical, providing 600 mg/d phenols, during two months (week 8). […] A licensed health care professional placed an intravenous catheter in the subjects′ nondominant arm and collected a fasting blood sample (baseline, 0 h). Then, subjects drank the soluble GCPE nutraceutical dissolved in 200 mL of water. […] On the sampling days, volunteers remained at the HNU, where a (poly)phenol-free diet was provided. Half an hour after consuming the nutraceutical, volunteers ate a breakfast consisting of ham, cheese, white bread, and a yogurt. Lunch (paella, bread, and yogurt) and an afternoon snack (muffin and yogurt) were eaten 5 and 9 h, respectively, after consuming the nutraceutical. Water and isotonic beverages were freely available. […] The same protocol was followed during visits at the end of the 8-week intervention. On each occasion, two days before each visit to the HNU, subjects consumed a low (poly)phenol diet free of foods containing hydroxycinnamates such as coffee, herbal teas, red wine, artichokes, whole grain cereals, vegetables, fruits and fruit juices, and dried fruits. Only banana, watermelon, cantaloupes, and potatoes were allowed.
(§2) Blood samples were immediately centrifuged (10 min, 3000 rpm, 4 °C) to obtain plasma. […] All biological samples were stored at −80 °C until analysis.
(§3) To extract plasma metabolites, 10 µL of 50% (v/v) aqueous formic acid, and 900 µL cold acetonitrile containing 50 µL of 10% (w/v) ascorbic acid were added to 400 µL defrosted plasma. Samples were vortexed and centrifuged (14,000 rpm, 10 min, 4 °C), repeating the extraction and combining the two supernatants, which were reduced to dryness under nitrogen [13]. Dried samples were resuspended in 150 µL of 0.1% aqueous formic acid (containing 10% acetonitrile acidified with 0.1% formic acid), centrifuged (15 min, 14,000 rpm, 4 °C), and the supernatant collected. Urine samples were diluted 1:1 with Milli-Q water and centrifuged (14,000 rpm, 20 min, 4 °C) prior to analysis. Phosphate-buffered saline (3 mL) was added to a representative 300 mg sample of thawed feces, homogenized in an ultrasound bath during 10 min, centrifuged (14,000 rpm, 20 min, 4 °C), and the supernatants collected.
(§4) Mobile phase A was 0.1% formic acid in Milli-Q water, and mobile phase B was acetonitrile containing 0.1% formic acid at a 0.3 mL/min flow rate. […] Metabolites were identified based on their retention time using authentic standards when possible. […] Urine concentration of excreted metabolites was normalized to the total volume excreted in each studied interval.
(§5) Plasma (30 µL), urine (5 µL) and fecal extracts (5 µL) were filtered through 0.45 µm
(§6) cellulose-acetate membrane filters and injected into an Agilent 1200 series LC system
(§7) ESI-Jet Stream Technology (Agilent Technologies). A reverse-phase Ascentis Express
(§8) C18 (15 cm x 3 mm, 2.7 µm) column (Sigma-Aldrich Quimica, Madrid), preceded by a
(§9) phase A was 0.1% formic acid in Milli-Q water, and mobile phase B was acetonitrile
(§10) containing 0.1% formic acid at a 0.3 mL/min flow rate. The gradient started with 10% B
(§11) at 0 min, 30% B at 10 min, 40% B at 15 min, reaching 50% B at 20 min. The starting
(§12) gradient was then re-established in 2 min and maintained for 8 min to re-equilibrate the

[2] = Urinary excretion of phenolic metabolites after intake of the GCPE nutraceutical; conditions: for Cumulative urinary excretion, Total 0–24 h: urine, mean ± SEM, n = 9
Experimental: as §1, §2, §3, §4, §5, §6, §7, §8, §9, §10, §11, §12

[3] = Plasma pharmacokinetics of phenolic metabolites after intake of the GCPE nutraceutical (LC-MS-QToF); conditions: human, oral; for AUC(0-t): AUC0–24h; for Tmax: Tmax (h) or Range; for Cmax: 300 mg, mean ± SEM, n = 9
Experimental: Participants attended the Human Nutrition Unit (HNU) at the Institute of Food Science, Technology and Nutrition (ICTAN-CSIC) on two consecutive days at the beginning of the intervention (week 0) and also on two consecutive days at the end of the study, after consuming daily two doses of the GCPE nutraceutical, providing 600 mg/d phenols, during two months (week 8). On each occasion, on the first visit day (Figure 1), subjects arrived at the HNU after an overnight (12 h) fast and provided a urine sample. A licensed health care professional placed an intravenous catheter in the subjects′ nondominant arm and collected a fasting blood sample (baseline, 0 h). Then, subjects drank the soluble GCPE nutraceutical dissolved in 200 mL of water. Subsequently, blood samples were collected in EDTA-coated tubes at 0.5, 1, 1.5, 2, 3, 4, 6, 8, 10, and 11 h. On the sampling days, volunteers remained at the HNU, where a (poly)phenol-free diet was provided. Half an hour after consuming the nutraceutical, volunteers ate a breakfast consisting of ham, cheese, white bread, and a yogurt. Lunch (paella, bread, and yogurt) and an afternoon snack (muffin and yogurt) were eaten 5 and 9 h, respectively, after consuming the nutraceutical. Water and isotonic beverages were freely available. Volunteers were instructed to eat a (poly)phenol-free dinner that night and to attend the HNU on the next day after a 12 h fast. Then, a final blood sample was obtained from the antecubital vein 24 h after consuming the nutraceutical. The same protocol was followed during visits at the end of the 8-week intervention. On each occasion, two days before each visit to the HNU, subjects consumed a low (poly)phenol diet free of foods containing hydroxycinnamates such as coffee, herbal teas, red wine, artichokes, whole grain cereals, vegetables, fruits and fruit juices, and dried fruits. Only banana, watermelon, cantaloupes, and potatoes were allowed.
as §2
To extract plasma metabolites, 10 µL of 50% (v/v) aqueous formic acid, and 900 µL cold acetonitrile containing 50 µL of 10% (w/v) ascorbic acid were added to 400 µL defrosted plasma. Samples were vortexed and centrifuged (14,000 rpm, 10 min, 4 °C), repeating the extraction and combining the two supernatants, which were reduced to dryness under nitrogen [13]. Dried samples were resuspended in 150 µL of 0.1% aqueous formic acid (containing 10% acetonitrile acidified with 0.1% formic acid), centrifuged (15 min, 14,000 rpm, 4 °C), and the supernatant collected.
A reverse-phase Ascentis Express C18 (15 cm × 3 mm, 2.7 µm) column (Sigma-Aldrich Quimica, Madrid, Spain), preceded by a Supelco 55215-U guard column (3 mm × 5 mm, 2.7 µm), was used for separation. Mobile phase A was 0.1% formic acid in Milli-Q water, and mobile phase B was acetonitrile containing 0.1% formic acid at a 0.3 mL/min flow rate. […] Metabolites were identified based on their retention time using authentic standards when possible.

Compound | Amount of fecal metabolite excreted at 0 h ([1]; week 0, mean ± SEM, n = 9) | Amount of fecal metabolite excreted at 0 h ([1]; week 8) | Amount of fecal metabolite excreted at 24 h ([1]; week 0) | Amount of fecal metabolite excreted at 24 h ([1]; week 8) | Cumulative urinary excretion, Total 0–24 h ([2]; week 0) | Cumulative urinary excretion, Total 0–24 h ([2]; week 8) | Amount excreted in urine, 0- 3 h ([2]; week 0, interval 0–3 h) | Amount excreted in urine, 3-6 h ([2]; week 0, interval 3–6 h) | Amount excreted in urine, 6-9 h ([2]; week 0, interval 6–9 h) | Amount excreted in urine, 9-11 h ([2]; week 0, interval 9–11 h) | Amount excreted in urine, 11-24 h ([2]; week 0, interval 11–24 h) | Amount excreted in urine, 0- 3 h ([2]; week 8, interval 0–3 h) | Amount excreted in urine, 3-6 h ([2]; week 8, interval 3–6 h) | Amount excreted in urine, 6-9 h ([2]; week 8, interval 6–9 h) | Amount excreted in urine, 9-11 h ([2]; week 8, interval 9–11 h) | Amount excreted in urine, 11-24 h ([2]; week 8, interval 11–24 h) | other results
O=C(O)c1ccc(O)c(O)c1 [3,4-Dihydroxybenzoic acid] | 0.016 ± 0.006 µmol/g | 0.026 ± 0.008 µmol/g | 0.018 ± 0.005 µmol/g | 0.04 ± 0.01 µmol/g | 0.13 ± 0.02 µmol | 0.18 ± 0.04 µmol | 0.016 ± 0.005 µmol | 0.007 ± 0.003 µmol | 0.017 ± 0.005 µmol | 0.018 ± 0.006 µmol | 0.035 ± 0.009 µmol | 0.03 ± 0.01 µmol | 0.014 ± 0.003 µmol | 0.027 ± 0.007 µmol | 0.018 ± 0.007 µmol | 0.03 ± 0.009 µmol | Amount of fecal metabolite excreted at 0 h ([1]; week 0, mean ± SEM, n = 9, listed as 3,4-dihydroxybenzoic acid): 0.016 µmol/g; Amount of fecal metabolite excreted at 0 h ([1]; week 8, listed as 3,4-dihydroxybenzoic acid): 0.026 µmol/g
COc1cc(/C=C/C(=O)O[C@@H]2C[C@@](O)(C(=O)O)C[C@@H](O)[C@@H]2O)ccc1O [3-Feruloylquinic acid] | 0.003 ± 0.003 µmol/g | 0.0010 ± 0.0007 µmol/g | 0.003 ± 0.003 µmol/g | 0.003 ± 0.002 µmol/g | 0.29 ± 0.07 µmol | 0.34 ± 0.07 µmol | 0.15 ± 0.04 µmol | 0.1 ± 0.04 µmol | 0.021 ± 0.006 µmol | 0.007 ± 0.004 µmol | 0.01 ± 0.005 µmol | 0.19 ± 0.04 µmol | 0.08 ± 0.02 µmol | 0.05 ± 0.01 µmol | 0.014 ± 0.008 µmol | 0.015 ± 0.007 µmol | –
O=C(O)Cc1ccc(O)c(O)c1 [3′,4′-Dihydroxyphenylacetic acid] | – | – | – | 0.010 ± 0.008 µmol/g | 1.2 ± 0.2 µmol | 1.3 ± 0.2 µmol | 0.12 ± 0.03 µmol | 0.08 ± 0.03 µmol | 0.11 ± 0.05 µmol | 0.06 ± 0.02 µmol | 0.38 ± 0.04 µmol | 0.15 ± 0.03 µmol | 0.05 ± 0.02 µmol | 0.08 ± 0.02 µmol | 0.09 ± 0.03 µmol | 0.31 ± 0.03 µmol | –
O=C(O)/C=C/c1ccc(O)cc1 [CoA, 4′-Hydroxycinnamic acid] | – | 0.006 ± 0.004 µmol/g | 0.002 ± 0.002 µmol/g | 0.003 ± 0.001 µmol/g | – | – | – | – | – | – | – | – | – | – | – | – | –
O=C(O)CCc1cccc(O)c1 [DHiCoA, 3-(3′-Hydroxyphenyl)propanoic acid] | 0.21 µmol/g and 0.21 ± 0.07 µmol/g | 0.4 µmol/g and 0.4 ± 0.1 µmol/g | 0.24 ± 0.07 µmol/g | 0.25 ± 0.07 µmol/g | – | – | – | – | – | – | – | – | – | – | – | – | –
COc1ccc(/C=C/C(=O)O)cc1O [iFA, 3′-Hydroxy-4′-methoxycinnamic acid] | – | – | – | – | 1.7 ± 0.2 µmol | 2.1 ± 0.2 µmol | 1 ± 0.2 µmol | 0.35 ± 0.07 µmol | 0.27 ± 0.07 µmol | 0.04 ± 0.03 µmol | 0.04 ± 0.02 µmol | 1.2 ± 0.2 µmol | 0.32 ± 0.04 µmol | 0.39 ± 0.07 µmol | 0.13 ± 0.07 µmol | 0.09 ± 0.04 µmol | AUC(0-t) ([3]; 300 mg hydroxycinnamic acids, week 0): 0.025 ± 0.007 µM·h; AUC(0-t) ([3]; 300 mg hydroxycinnamic acids, week 8): 0.043 ± 0.008 µM·h; Tmax ([3]; 300 mg hydroxycinnamic acids, week 0, first peak where biphasic): 30 ± 6 min; Tmax ([3]; 300 mg hydroxycinnamic acids, week 8, first peak where biphasic): 30 min; AUC(0-t) ([3]; 300 mg phenols, week 0): 0.025 µM·h; AUC(0-t) ([3]; 300 mg phenols, week 8): 0.043 µM·h; Cmax ([3]; week 0, GCPE nutraceutical with 300 mg hydroxycinnamic acids): 23 ± 6 nM; Cmax ([3]; week 8, GCPE nutraceutical with 300 mg hydroxycinnamic acids): 32 ± 7 nM
